Experimental data published in patent US10253029B2, “Dual-warhead covalent inhibitors of FGFR-4” (Newave Pharmaceutical Inc., priority 2015, dated 2019).

Columns and labels:
[1] = test system: patient-derived liver cancer cell line LIXC012; test: Antiproliferative activity, ATPlite Luminescence Assay; assay type: cell-based; details: FGF19-overexpressing LIXC012 cells, about 72 hours, 5% FBS; read-out: LIXC012 IC50 (cellular antiproliferative)
Method: The antiproliferative activity of compounds are assessed in the patient-derived liver cancer cell line LIXC012 (Shanghai ChemPartner Co., LTD) by PerkinElmer ATPlite™ Luminescence Assay System. LIXC012 cell line has a FGFR-4 aberrant signaling pathway (FGF19-overexpressing). Briefly, the various test cancer cell lines are plated at a density of about 1×10^4 cells per well in Costar 96-well plates, and are incubated with different concentrations of compounds for about 72 hours in medium supplemented with 5% FBS. One lyophilized substrate solution vial is then reconstituted by adding 5 mL of substrate buffer solution, and is agitated gently until the solution is homogeneous. About 50 μL of mammalian cell lysis solution is added to 100 μL of cell suspension per well of a microplate, and the plate is shaken for about five minutes in an orbital shaker at ˜700 rpm. This procedure is used to lyse the cells and to stabilize the ATP. Next, 50 μL substrate solution is added to the wells and microplate is shaken for five minutes in an orbital shaker at ˜700 rpm. Finally, the luminescence is measured by a PerkinElmer TopCount® Microplate Scintillation Counter. Such assays, carried out with a range of doses of test compounds, allow the determination of the cellular anti-antiproliferative IC50 of the compounds of the present invention. The following table lists the IC50 values of certain compounds of the invention in the FGF19-overexpressing Patient-Derived liver cancer cell line LIXC012.

[2] = biological target: T1, wild type FGFR-4 (Homo sapiens, UniProt P22455); test: FGFR-4 wild type assay at Km (Caliper mobility shift); assay type: biochemical; details: wild type FGFR-4, 400 uM ATP, 25 C, 90 minutes
T1 construct: purchased Carna Biosciences, Inc
T1 sequence (P22455 22-802): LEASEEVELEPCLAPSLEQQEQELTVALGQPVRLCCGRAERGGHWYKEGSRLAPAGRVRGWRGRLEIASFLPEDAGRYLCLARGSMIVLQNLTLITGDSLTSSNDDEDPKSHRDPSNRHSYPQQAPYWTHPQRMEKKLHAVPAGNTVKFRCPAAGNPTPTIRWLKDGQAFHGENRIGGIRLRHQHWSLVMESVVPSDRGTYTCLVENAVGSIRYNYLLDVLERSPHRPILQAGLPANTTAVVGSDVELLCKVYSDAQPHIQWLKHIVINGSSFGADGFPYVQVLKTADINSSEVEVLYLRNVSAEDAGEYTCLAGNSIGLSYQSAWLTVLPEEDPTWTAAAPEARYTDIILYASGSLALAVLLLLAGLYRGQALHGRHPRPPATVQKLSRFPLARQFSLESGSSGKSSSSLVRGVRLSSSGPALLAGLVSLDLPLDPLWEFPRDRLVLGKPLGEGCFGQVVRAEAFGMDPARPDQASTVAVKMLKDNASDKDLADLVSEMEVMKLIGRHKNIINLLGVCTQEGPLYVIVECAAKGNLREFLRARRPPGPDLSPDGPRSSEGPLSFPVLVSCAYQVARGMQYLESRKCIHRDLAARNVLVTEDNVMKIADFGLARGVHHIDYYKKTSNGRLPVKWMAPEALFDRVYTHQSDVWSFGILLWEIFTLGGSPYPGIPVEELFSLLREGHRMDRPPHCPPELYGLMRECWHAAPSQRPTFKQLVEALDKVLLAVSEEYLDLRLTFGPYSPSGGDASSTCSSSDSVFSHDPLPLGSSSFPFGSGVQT
Method: (§1) In order to assess the activity of chemical compounds against the relevant kinase of interest, the Caliper LifeSciences electrophoretic mobility shift technology platform is utilized. Fluorescently labeled substrate peptide is incubated in the presence dosed levels of compounds, a set concentration of kinase and of ATP, so that a reflective proportion of the peptide is phosphorylated. At the end of the reaction, the mix of phosphorylated (product) and non-phosphorylated (substrate) peptides are passed through the microfluidic system of the Caliper LabChip® EZ Reader II, under an applied potential difference. The presence of the phosphate group on the product peptide provides a difference in mass and charge between the product peptide and the substrate peptide, resulting in a separation of the substrate and product pools in the sample. As the pools pass the LEDS within the instrument, these pools are detected and resolved as separate peaks. The ratio between these peaks therefore reflects the activity of the chemical matter at that concentration in that well, under those conditions.
FGFR-4 wild type assay at Km: In each well of a 384-well plate, 0.5 ng/ul of wild type FGFR-4 (Carna Biosciences, Inc.) was incubated in a total of 12.5 ul of buffer (100 mM HEPES pH 7.5, 0.015% Brij 35, 10 mM MgCl2, ImM DTT) with 1 uM CSKtide (5-FAM-KKKKEEIYFFFG-NH2) and 400 uM ATP at 25 C for 90 minutes in the presence or absence of a dosed concentration series of compound (1% DMSO final concentration). The reaction was stopped by the addition of 70 ul of Stop buffer (100 mM HEPES pH 7.5, 0.015% Brij 35, 35 mM EDTA and 0.2% of Coating Reagent 3 (Caliper Lifesciences)). The plate was then read on a Caliper LabChip® EZ Reader II (protocol settings: −1.9 psi, upstream voltage −700, downstream voltage −3000, post sample sip 35 s).
Such assays, carried out with a range of doses of test compounds, allow the determination of an approximate IC50 value. […] The following table lists the IC50 values of certain compounds of the invention.

[3] = biological target: T2, wild type FGFR-2 (Homo sapiens, UniProt P21802); test: FGFR-2 wild type assay at Km (Caliper mobility shift); assay type: biochemical; details: wild type FGFR-2, 400 uM ATP, 25 C, 90 minutes
T2 construct: purchased Carna Biosciences, Inc
T2 sequence (P21802 22-821): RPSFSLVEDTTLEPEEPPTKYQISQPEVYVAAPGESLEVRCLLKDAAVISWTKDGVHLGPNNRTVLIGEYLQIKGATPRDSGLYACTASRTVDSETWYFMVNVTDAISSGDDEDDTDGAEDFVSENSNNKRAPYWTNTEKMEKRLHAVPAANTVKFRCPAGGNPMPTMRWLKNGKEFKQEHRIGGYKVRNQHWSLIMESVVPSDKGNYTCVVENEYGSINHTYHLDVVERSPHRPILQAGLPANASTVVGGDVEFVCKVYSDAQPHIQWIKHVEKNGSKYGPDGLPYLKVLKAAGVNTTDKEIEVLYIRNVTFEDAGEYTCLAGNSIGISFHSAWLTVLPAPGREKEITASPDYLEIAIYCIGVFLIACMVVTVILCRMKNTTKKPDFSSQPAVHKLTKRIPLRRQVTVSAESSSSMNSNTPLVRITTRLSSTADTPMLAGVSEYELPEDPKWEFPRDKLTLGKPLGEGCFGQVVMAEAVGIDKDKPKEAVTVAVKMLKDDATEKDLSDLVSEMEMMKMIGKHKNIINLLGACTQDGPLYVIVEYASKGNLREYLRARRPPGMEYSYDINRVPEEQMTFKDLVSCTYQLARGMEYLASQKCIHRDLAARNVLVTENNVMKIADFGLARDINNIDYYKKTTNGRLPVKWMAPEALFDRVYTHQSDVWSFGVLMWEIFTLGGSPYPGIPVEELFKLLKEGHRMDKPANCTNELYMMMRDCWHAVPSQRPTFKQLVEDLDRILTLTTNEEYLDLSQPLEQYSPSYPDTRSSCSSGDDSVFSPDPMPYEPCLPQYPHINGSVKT
Method: as §1, with “conditions. […]” for “conditions.”

[4] = biological target: T3, wild type FGFR-1 (Homo sapiens, UniProt P11362); test: FGFR-1 wild type assay at Km (Caliper mobility shift); assay type: biochemical; details: wild type FGFR-1, 400 uM ATP, 25 C, 90 minutes
T3 construct: purchased Carna Biosciences, Inc
T3 sequence (P11362 22-822): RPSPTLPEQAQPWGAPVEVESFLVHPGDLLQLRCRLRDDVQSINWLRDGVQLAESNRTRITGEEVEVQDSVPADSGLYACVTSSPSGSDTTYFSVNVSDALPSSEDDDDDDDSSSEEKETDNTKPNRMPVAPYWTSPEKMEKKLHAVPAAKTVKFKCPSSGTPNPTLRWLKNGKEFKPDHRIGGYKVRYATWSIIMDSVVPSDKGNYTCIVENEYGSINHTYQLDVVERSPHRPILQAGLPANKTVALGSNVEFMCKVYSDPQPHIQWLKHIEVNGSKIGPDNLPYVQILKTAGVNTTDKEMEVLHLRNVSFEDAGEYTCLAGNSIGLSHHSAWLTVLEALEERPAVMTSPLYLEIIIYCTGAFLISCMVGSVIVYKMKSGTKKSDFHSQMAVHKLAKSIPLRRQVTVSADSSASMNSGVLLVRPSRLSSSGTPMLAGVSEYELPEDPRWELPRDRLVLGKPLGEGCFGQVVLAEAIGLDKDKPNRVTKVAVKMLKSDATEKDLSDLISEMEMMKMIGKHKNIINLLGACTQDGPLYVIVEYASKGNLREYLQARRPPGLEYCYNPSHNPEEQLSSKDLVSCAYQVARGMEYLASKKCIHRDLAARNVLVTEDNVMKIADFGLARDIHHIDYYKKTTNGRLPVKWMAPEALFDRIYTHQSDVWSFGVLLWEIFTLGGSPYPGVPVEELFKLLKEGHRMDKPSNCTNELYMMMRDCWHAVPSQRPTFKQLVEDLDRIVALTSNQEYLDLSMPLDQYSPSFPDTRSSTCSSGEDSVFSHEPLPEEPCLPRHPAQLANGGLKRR
Method: as §1, with “conditions. […]” for “conditions.”

[5] = biological target: T4, wild type FGFR-3 (Homo sapiens, UniProt P22607); test: FGFR-3 wild type assay at Km (Caliper mobility shift); assay type: biochemical; details: wild type FGFR-3, 400 uM ATP, 25 C, 90 minutes
T4 construct: purchased Carna Biosciences, Inc
T4 sequence (P22607 23-806): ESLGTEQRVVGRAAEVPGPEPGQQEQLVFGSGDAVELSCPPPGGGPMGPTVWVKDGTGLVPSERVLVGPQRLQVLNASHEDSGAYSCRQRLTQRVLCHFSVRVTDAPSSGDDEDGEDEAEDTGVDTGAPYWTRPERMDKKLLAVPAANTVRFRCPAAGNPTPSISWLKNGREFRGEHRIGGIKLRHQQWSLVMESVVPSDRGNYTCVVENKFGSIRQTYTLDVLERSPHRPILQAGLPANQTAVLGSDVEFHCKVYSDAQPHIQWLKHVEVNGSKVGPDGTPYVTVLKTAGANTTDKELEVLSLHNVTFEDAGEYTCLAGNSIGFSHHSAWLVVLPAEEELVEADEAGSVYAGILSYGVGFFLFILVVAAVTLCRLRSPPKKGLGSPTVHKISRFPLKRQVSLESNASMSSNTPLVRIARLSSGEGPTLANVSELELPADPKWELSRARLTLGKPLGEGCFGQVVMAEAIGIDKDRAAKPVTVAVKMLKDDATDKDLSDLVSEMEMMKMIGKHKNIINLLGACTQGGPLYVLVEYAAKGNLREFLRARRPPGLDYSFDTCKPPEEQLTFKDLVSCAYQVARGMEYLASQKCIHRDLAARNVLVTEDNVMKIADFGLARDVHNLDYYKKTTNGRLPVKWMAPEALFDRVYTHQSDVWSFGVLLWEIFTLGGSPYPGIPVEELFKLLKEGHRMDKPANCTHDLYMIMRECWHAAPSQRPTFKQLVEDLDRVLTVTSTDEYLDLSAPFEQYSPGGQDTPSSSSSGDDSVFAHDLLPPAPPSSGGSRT
Method: as §1, with “conditions. […]” for “conditions.”

| Structure (SMILES) | IC50 [1] [nM] | IC50 [2] [nM] | IC50 [3] [nM] | IC50 [4] [nM] | IC50 [5] [nM] |
| --- | --- | --- | --- | --- | --- |
| C=CC(=O)Nc1cccc(C)c1Nc1ncc2cc(-c3c(Cl)c(OC)cc(OC)c3Cl)ccc2n1 [BLU9931, reference compound] | 280 | – | – | – | – |
| C=CC(=O)Nc1ccc(Cn2c(=O)c(-c3c(Cl)c(OC)cc(OC)c3Cl)cc3cnc(Nc4c(C)cccc4NC(=O)C=C)nc32)cc1 [CY-15-2, N-(4-((2-((2-acrylamido-6-methylphenyl)amino)-6-(2,6-dichloro-3,5-dimethoxyphenyl)-7-oxopyrido[2,3-d]pyrimidin-8(7H)-yl)methyl)phenyl)acrylamide] | 490 | < 50 | > 1000 | > 1000 | > 1000 |
| C=CC(=O)Nc1ccc(CCn2c(=O)c(-c3c(Cl)c(OC)cc(OC)c3Cl)cc3cnc(Nc4c(C)cccc4NC(=O)C=C)nc32)cc1 [CY-15-3, N-(4-(2-(2-(2-acrylamido-6-methylphenylamino)-6-(2,6-dichloro-3,5-dimethoxyphenyl)-7-oxopyrido[2,3-d]pyrimidin-8(7H)-yl)ethyl)phenyl)acrylamide] | 660 | < 50 | > 1000 | > 1000 | > 1000 |
| C=CC(=O)Nc1cccc(C)c1Nc1ncc2cc(-c3c(Cl)c(OC)cc(OC)c3Cl)c(=O)n(CC3CN(C(=O)/C=C/CN(C)C)C3)c2n1 [CY-15-4] | – | < 50 | – | – | – |
| C=CC(=O)Nc1cccc(C)c1Nc1ncc2cc(-c3c(Cl)c(OC)cc(OC)c3Cl)c(=O)n(CC3CCN(C(=O)/C=C/CN(C)C)C3)c2n1 (stereo not shown) [CY-15-5] | – | < 50 | – | – | – |
| C=CC(=O)Nc1cccc(C)c1Nc1ncc2cc(-c3c(Cl)c(OC)cc(OC)c3Cl)c(=O)n(CC3CCN(C(=O)/C=C/CN(C)C)CC3)c2n1 [CY-15-6] | – | < 50 | – | – | – |
| C=CC(=O)Nc1cccc(C)c1Nc1ncc2cc(-c3c(Cl)c(OC)cc(OC)c3Cl)c(=O)n(CCN3CCN(C(=O)C=C)CC3)c2n1 [CY-15-7] | – | < 50 | – | – | – |
| C=CC(=O)Nc1cccc(C)c1Nc1ncc2cc(-c3c(Cl)c(OC)cc(OC)c3Cl)c(=O)n(CCCN3CCN(C(=O)C=C)CC3)c2n1 [CY-15-8] | – | < 50 | – | – | – |
